Assay results published in patent US20230295436A1, “INTERMOLECULARLY-FABRICATED COMPOSITION FOR ENCAPSULATING PLANT MATERIALS, AGROCHEMICALS AND PHARMACEUTICALS” (University of Central Florida Research Foundation, Inc., priority 2022, published 2023).
In brackets after ≈: the same amount, converted by molar mass.

Tests used:
[1] = Dynamic light scattering (hydrodynamic size, PDI); type: physicochemical; conditions: optimized formulations and controls, Table 1
Excerpt: (§1) Malvern Zetasizer Nano ZS90 was used to study the hydrodynamic size, surface charge, and polydispersity index (PDI) of the NPs. Agilent Cary 300 Bio UV-Vis spectrophotometer was used to measure the absorbance of materials across the UV-Visible spectrum. Spectronic 200 spectrophotometer was used to carry out the degradation and release rate studies. Samples were freeze-dried using a Labconco lyophilizer. Shimadzu IRSpirit with QATR-S was used to obtain
(§2) DLS and ZP measurements were done using a Malvern Zetasizer ZS90 to determine the samples' hydrodynamic size and surface charge, respectively. The samples were diluted to approximately 200 ppm of curcumin to obtain 100 to 1000 kilo counts per second (kcps). Samples were added into the appropriate cuvettes for DLS and ZP readings.

[2] = Zeta potential (surface charge); type: physicochemical; conditions: optimized formulations and controls, Table 1
Excerpt: as §1, §2

[3] = Degradation rate of curcumin in aqueous solution; type: physicochemical
Procedure: The degradation rate of Cur-TA-PVP NPs and free curcumin was determined by measuring the peak absorbance over time as this can be correlated to the concentration in solution. […] Absorbance readings of samples were acquired at 425 nm every 60 minutes for 24 hours. Degradation rate equations were determined based on the trendlines that provide an R2 of 0.95 or greater. Simple linear regressions were also performed to compare the slopes of the degradation curves to determine if the difference was statistically significant.

S16 Rat Schwann Cells = assay: AlamarBlue viability assay, S16; type: cell-based; conditions: S16 RSCs, 24 hours, 0 to 80 μM curcumin
Procedure: The viability of cells when treated with Cur-TA-PVP, TA-PVP, or free curcumin was assessed to determine the therapeutic window of treatments. This was done by performing an alamarBlue (resazurin) assay according to the manufacturer's instructions. The cell types assessed were models for those involved in PNI and subsequent PNR: S16 rat Schwann cells (RSCs), J744 murine macrophages, and SH-SY5Y cells (neuronal cell line). SH-SY5Y cells were cultured in DMEM/F12 supplemented with 10% FBS and 1% penicillin/streptomycin, whereas the J744 macrophages and S16 RSCs were cultured in DMEM supplemented with 10% FBS and 1% streptomycin/penicillin.
First, cells (n=3) were seeded in 96 well plates at a density of 10^4 cells per well and incubated overnight in a humidified atmosphere at 37° C. and 5% CO2. Cur-TA-PVP and free curcumin were then introduced into the wells at a concentration range of 0 to 80 μM curcumin. In the case of TA-PVP, the concentration range was equivalent to TA and PVP concentrations in the Cur-TA-PVP NPs. The plates were incubated for 24 hours, and the media containing treatments was then removed and fresh media with 10% 0.15 mg/mL resazurin was added into all wells. The plates were incubated for 2 hours, and the fluorescence was read using a Tecan plate reader at an ex/em of 560/590 nm. The cell viability was calculated using the following equation.

SH-SY5Y cells = assay: H2O2-induced oxidative stress and cell viability, SH-SY5Y; type: cell-based; conditions: 6 hours pre-treatment, 50 μM H2O2 for 18 hours
Procedure: The potential for Cur-TA-PVP, TA-PVP, or free curcumin to rescue cells from oxidative damage induced by H2O2 was assessed to determine the antioxidant activity of the treatments in cells. The assay was performed according to a previously published protocol by Mahakunakorn et al. [Mahakunakorn, P., et al., Cytoprotective and cytotoxic effects of curcumin: dual action on H2O2-induced oxidative cell damage in NG108-15 cells. Biol Pharm Bull, 2003. 26(5): p. 725-8.]. Briefly, SH-SY5Y cells and J744 murine macrophages were each seeded in 96 well plates (n=3) and incubated overnight at 37° C. and 5% CO2. Cells were then pre-treated with fresh media containing treatments for 6 hours, and then with fresh media containing 100 μM H2O2 (J774) or 50 μM (SH-SY5Y) for another 18 hours. The media was then replaced with complete media containing 10% of 0.15 mg/mL resazurin. The cells were incubated for 2 hours, and the fluorescence was read at an ex/em of 560/590 nm. The cell viability was determined using the equation noted in section 10.3.1.

[4] = Appearance / colloidal stability in water; type: physicochemical; conditions: aqueous solution
Excerpt: Biochim Biophys Acta, 2008. 1780(4): p. 673-9.]. Curcumin directly interacts with or leads to the upregulation of many intracellular proteins involved in anti-inflammation, antioxidant, neuroprotective, and re-myelination pathways [Caillaud, M., et al., Key Developments in the Potential of Curcumin for the Treatment of Peripheral Neuropathies. Antioxidants (Basel), 2020. 9(10).]. Thus, the therapeutic potential of free curcumin is lowered by its propensity to reside in the lipid bilayer. Since the TA-PVP carrier improves the stability of curcumin in water, it is therefore expected that this would enhance its availability within the cytoplasm of cells to reach or upregulate targets involved in achieving successful PNR. The NP formulation dramatically increases the colloidal stability of curcumin compared to its free form alone in the aqueous solution.

[5] = cited from earlier work

Polydispersity Index (PDI) [1]: 0.578 | Z-ave [1]: 328 nm·days | Zeta Potential [2]: −13 mV | slope of degradation curve (simple linear regression) ([3]; 40 μM in water, absorbance at 425 nm every 60 minutes for 24 hours): −0.01123
Structure (SMILES): COc1cc(/C=C/C(=O)CC(=O)/C=C/c2ccc(O)c(OC)c2)ccc1O [Free Curcumin, curcumin]
curcumin remaining in its viable form ([3]; after 24 hours of dispersion in PBS): about 60% | cell viability compared to other treatment groups (S16 Rat Schwann Cells): higher cell viability than the other treatment groups at all concentrations | protection against H2O2-induced oxidative stress (cell rescue) (SH-SY5Y cells): no cell rescue | colloidal stability in water (appearance) [4]: precipitate and sink to the bottom of the vial | water solubility [5]: 0.1 mg/mL (≈ 271 µM)
